Columns and labels:
[1] = parameters: method as in PMID 36959150; details: cited from earlier work
[2] = Adverse events monitoring by clinical evaluation and laboratory tests after single dose
[3] = Drug stability in biological fluid (LC-MS/MS method validation); format: in vitro ADME; details: human plasma, LQC and HQC; freshly prepared, post-processing (auto-injector, 73:43 hours), short-term (72:21 hours), freeze-thaw (4 cycles) at -20 °C and -70 °C, long-term 90 days at -20 °C and -70 °C; demonstrating stability
Protocol: criteria for RE and CV must not exceed 15% for QC and 20% for LLOQ. All stability assays were performed to cover the conditions anticipated for handling real samples: freshly prepared, post-processing, short-term, freeze–thaw, and long-term were evaluated at concentrations of LQC and HQC. RE and CV were used to check possible variations.
2.4. Determination of Etodolac Pharmacokinetic
Following Food and Drug Administration (FDA) guidelines, blood samples were drawn up to a period of three to ﬁve times the terminal elimination half-life (t1/2), and the mean AUC0–t/AUC0–∞ ratio was required to be higher than 80%. The area under the concentration–time curve (AUC0–t) was calculated from time 0 to time t. The total area under the curve (AUC0–∞) was obtained up to […], and extrapolations were performed using the last measurable concentration and the terminal elimination rate constant (Ke). The terminal elimination rate constant, Ke, was estimated from the slope of the terminal […] of the plasma of the etodolac concentration–time curve (by means of the linear regression method) adjusted in the last three values. The terminal elimination half-life, t1/2, was then obtained as 0.693/Ke. […]

[4] = 37 healthy volunteers, single dose 500 mg
[5] = Adverse event: Alanine Aminotransferase Increased
[6] = Adverse event: Alkaline Phosphatase Increased
[7] = Adverse event: Altered Erythrogram
[8] = Adverse event: Altered Leukogram
[9] = Adverse event: Decreased Platelet Count
[10] = Adverse event: Fastting Glucose Increased
[11] = Adverse event: Increased Total Bilirubin and Fractions
[12] = Adverse event: Total Cholesterol Increased

CCc1cccc2c3c([nH]c12)C(CC)(CC(=O)O)OCC3 (stereo not drawn) [Etodolac]
below 15%: drug stability in biological fluid: precision and accuracy values [3]
1: Events count ([2]; Adverse event: Alkaline Phosphatase Increased, 37 healthy volunteers, single dose 500 mg) | Events count ([2]; Adverse event: Decreased Platelet Count, 37 healthy volunteers, single dose 500 mg) | Events count ([2]; Adverse event: Increased Total Bilirubin and Fractions, 37 healthy volunteers, single dose 500 mg) | Events count ([2]; Adverse event: Leukocyturia, 37 healthy volunteers, single dose 500 mg)
Mild: Intensity (Mild / Moderate / Severe / Lethal) [2, 5] | Intensity (Mild / Moderate / Severe / Lethal) [2, 6] | Intensity (Mild / Moderate / Severe / Lethal) [2, 7] | Intensity (Mild / Moderate / Severe / Lethal) [2, 8] | Intensity (Mild / Moderate / Severe / Lethal) [2, 9] | Intensity (Mild / Moderate / Severe / Lethal) [2, 10] | Intensity (Mild / Moderate / Severe / Lethal) [2, 11] | Intensity (Mild / Moderate / Severe / Lethal) ([2]; Adverse event: Leukocyturia) | Intensity (Mild / Moderate / Severe / Lethal) [2, 12]
BCS class II: Biopharmaceutics Classification System class ([1]; dissolution rate-dependent absorption)
not expected: adverse events: predictability (all events) [2, 4]
3: Events count ([2]; Adverse event: Alanine Aminotransferase Increased, 37 healthy volunteers, single dose 500 mg) | Events count ([2]; Adverse event: Altered Erythrogram, 37 healthy volunteers, single dose 500 mg) | Events count ([2]; Adverse event: Altered Leukogram, 37 healthy volunteers, single dose 500 mg) | Events count ([2]; Adverse event: Fastting Glucose Increased, 37 healthy volunteers, single dose 500 mg) | Events count ([2]; Adverse event: Total Cholesterol Increased, 37 healthy volunteers, single dose 500 mg)
19: adverse events recorded (total) ([2]; 37 healthy volunteers, single dose 500 mg, results outside reference values)
poor solubility: solubility [1]
mild: adverse events: intensity (all events) [2, 4]
Not Expected: Predictability (Expected / Not Expected) [2, 5] | Predictability (Expected / Not Expected) [2, 6] | Predictability (Expected / Not Expected) [2, 7] | Predictability (Expected / Not Expected) [2, 8] | Predictability (Expected / Not Expected) [2, 9] | Predictability (Expected / Not Expected) [2, 10] | Predictability (Expected / Not Expected) [2, 11] | Predictability (Expected / Not Expected) ([2]; Adverse event: Leukocyturia) | Predictability (Expected / Not Expected) [2, 12]

From publication PMC11768370, “Etodolac Single Dose Metabolic Profile Elucidation: Pharmacokinetics and Adverse Events in Healthy Volunteers” (Pharmaceuticals, 2025)
